According to patent US10578610B2, “Peptide regulators of mitochondrial fusion and methods of use” (priority 2016, dated 2020):
Ends that are not written are not given here.

Experiments:
human Mfn2 = biological target: T1, human Mfn2 (Homo sapiens, UniProt O95140); assay: Carboxypeptidase protection assay on mitochondrial membranes; assay type: biochemical; design: from tissue; host or cells: mitochondrial membranes of transgenic mouse hearts overexpressing human Mfn2; conditions: 200 ng/ml carboxypeptidases A and B; mouse heart mitochondrial membranes overexpressing human Mfn2
T1 sequence (O95140 1-757): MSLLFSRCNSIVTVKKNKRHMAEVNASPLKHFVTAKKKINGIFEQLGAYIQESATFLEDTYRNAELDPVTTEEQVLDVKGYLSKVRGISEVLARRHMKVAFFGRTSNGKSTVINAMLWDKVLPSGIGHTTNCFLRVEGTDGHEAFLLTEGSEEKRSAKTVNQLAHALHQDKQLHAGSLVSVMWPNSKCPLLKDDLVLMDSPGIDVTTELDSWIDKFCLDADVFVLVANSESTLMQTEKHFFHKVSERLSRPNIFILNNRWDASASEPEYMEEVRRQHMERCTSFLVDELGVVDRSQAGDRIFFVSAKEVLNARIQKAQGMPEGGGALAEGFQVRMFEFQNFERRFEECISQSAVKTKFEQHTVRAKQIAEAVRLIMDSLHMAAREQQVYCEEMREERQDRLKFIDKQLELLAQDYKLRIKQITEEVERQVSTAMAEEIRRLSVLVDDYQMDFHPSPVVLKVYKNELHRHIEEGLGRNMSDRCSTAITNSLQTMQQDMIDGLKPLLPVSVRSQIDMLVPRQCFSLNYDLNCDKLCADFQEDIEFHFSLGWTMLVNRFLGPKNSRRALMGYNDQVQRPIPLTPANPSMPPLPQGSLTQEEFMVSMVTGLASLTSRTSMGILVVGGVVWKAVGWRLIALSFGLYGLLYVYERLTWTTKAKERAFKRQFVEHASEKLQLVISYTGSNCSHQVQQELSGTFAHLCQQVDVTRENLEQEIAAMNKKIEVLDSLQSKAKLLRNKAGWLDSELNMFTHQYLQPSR
Description: Mitochondrial membranes were prepared (Song et al., 2015, Cell Metab, 21:273-285) from mouse hearts overexpressing human Mfn2 (Gong et al., 2015, Science, 350:aad2459) and digested with 200 ng/ml each carboxypeptidases A and B (Sigma-Aldrich) for increasing times at room temperature, followed by immunoblotting using an antibody (Abcam ab56889) specific to hMfn2 HR2.

Opa1 and Drp1 = assay: Immunoblot analysis of mitochondrial dynamics proteins in MEFs; assay type: cell-based, murine; conditions: immunoblot 4 hours after application to MEFs; data not shown
Mfn2 T105M fl/st MEFs = assay: TAT-minipeptides in MEFs expressing CMT2A mutant hMfn2 T105M; assay type: cell-based, murine; conditions: for mitochondrial fragmentation / dysmorphology / mitochondrial polarization / depolarization: Mfn2 T105M MEFs, 72 hours after adeno-Cre, 1 μM
Description: Wild-type murine embryonic fibroblast cells (MEFs) were prepared from E10.5 C57/b6 mouse embryos. SV-40 T antigen-immortalized Mfn1 null (“Mfn1 KO,” ATCC No. CRL-2992), Mfn2 null (“Mfn2 KO,” ATCC No. CRL-2993) and Mfn1/Mfn2 double null MEFs (“Mfn DKO,” ATCC No. CRL-2994) were purchased from ATCC. MEFs conditionally expressing the human Mfn2 T105M mutation were prepared from E10.5 embryos of C57BL/6-Gt(ROSA)26Sor[tm1(CAG-MFN2*T105M)Dple]/J mice purchased from The Jackson Laboratory (Stock No: 025322). MEFs were maintained in DMEM containing 4.5 g/L glucose (or galactose when specified) supplemented with 10% fetal bovine serum, 1× nonessential amino acids, 2 mM L-glutamine, 100 U/ml penicillin and 100 μg/ml streptomycin.
Models cells harboring a Cre recombinase-inducible mutant human Mfn2 containing the T105M mutation were used (FIG. 13A) because they recapitulate fusion defects caused by compound functional null Mfn2 mutants in […] CMT2A. A time course study of mitochondrial fragmentation after adeno-Cre mediated induction of Mfn2 T105M was performed and the results are shown in FIG. 13B.
It was considered that mitochondrial dysmorphology created by genetic Mfn2 dysfunction in CMT2A might be improved by TAT-367-384Gly if endogenous normal Mfn1 or Mfn2 proteins could be compelled into their active unfolded conformations, thus overcoming dominant inhibition by GTPase Mfn2 mutants. This was tested in MEFs expressing the CMT2A-causal mutant hMfn2 T105M (Calvo et al., 2009, Arch Neurol, 66:1511-1516; Detmer et al., 2008, Hum Mol Genet, 17:367-375) as a conditional flox/stop (fl/st) transgene. […] Parallel adenoviral expression of WT Mfn2 at more than twice the levels of Mfn2 T105M (5-fold vs 2-fold) provoked neither mitochondrial nor cellular toxicity (data not shown). Scale bars are 10 microns. N=3 or 4; *=P<0.05 vs. control, #=P<0.05 vs. Ad-Cre (ANOVA).

[1] = tested on: mitochondrial mitofusins in WT MEFs; assay: Confocal localization of FITC-labeled TAT-minipeptides; assay type: cell-based, murine
Description: The above results support the premise that TAT-conjugated Mfn2 minipeptides affect mitochondrial fusion by modulating Mfn1 and Mfn2 conformation according to the dynamic structure model depicted in FIGS. 3A-3C. Additional studies were performed to validate this mechanism of action using the minipeptide-Mfn2 binding assay procedure. Confocal localization of FITC-labeled TAT-minipeptides in WT MEFs and Mfn null MEFs (Mfn1/Mfn2 DKO) was used for analysis of interaction between the minipeptides and mitochondrial mitofusins. Mitochondria were stained with MitoTracker Orange; nucleus was stained with Blue Hoechst. Line-scans were generated for the confocal photographs.
Thus, cell-internalized TAT-conjugated Mfn2 HR1 minipeptides bind specifically to mitochondrial mitofusins.

[2] = tested on: Mfn null MEFs expressing Mfn2 K109A or Mfn2 AA; assay: TAT-minipeptides in Mfn null MEFs expressing Mfn2 mutants; assay type: cell-based, murine; conditions: for mitochondrial morphology: Mfn null MEFs expressing Mfn2 AA
Text: The efficacy of the minipeptides to correct mitochondrial abnormalities in Mfn null MEFs was further evaluated. In this experiment, several Mfn2 mutants having well-characterized and diverse functional profiles were introduced into Mfn null MEFs. As shown above, mitochondria of MEFs lacking Mfn1 and Mfn2 are highly fragmented. Adenoviral reintroduction of WT Mfn2 corrected dysmorphology in Mfn null MEFs and was required for TAT minipeptides to alter mitochondrial fusion in these cells (FIGS. 12A-12B). By contrast, adenoviral expression of mouse Mfn2 K109A, a GTPase defective mutant (Detmer and Chan, 2007, J Cell Biol, 176:405-414), had no effect on mitochondrial fragmentation in Mfn null MEFs. […] Mitochondrial morphometry in Mfn null MEFs expressing fusion-impaired Mfn2 EE, which has glutamate substitutions to mimic phosphorylation at Mfn2 T111 and […], was more variable (FIG. 12A-12B).

[3] = Mfn null MEFs expressing only Mfn2 K109A

| Sequence | carboxyl terminal-directed proteolytic digestion of Mfn2 (exposure of C-terminal HR2 domain) (human Mfn2) | abundance of Opa1 and Drp1 (Opa1 and Drp1) | mitochondrial fragmentation / dysmorphology (Mfn2 T105M fl/st MEFs) | mitochondrial polarization / depolarization (Mfn2 T105M fl/st MEFs) | localization of FITC-labeled TAT-peptide to mitochondria [1] | mitochondrial morphology [2] | mitochondrial clumping (Mfn2 T105M fl/st MEFs; cells expressing Mfn2 T105M) | mitochondrial aspect ratio / mitochondrial pathology [2, 3] | mitochondrial clumping [2, 3] |
| --- | --- | --- | --- | --- | --- | --- | --- | --- | --- |
| QDRLKFIDKQGELLAQDYKLRGGYGRKKRRQRRR [TAT-398-418Gly] | had the opposite effect | without altering Mfn2 GTPase activity or influencing the abundance | aggravated mitochondrial dysmorphology | exacerbated mitochondrial depolarization | decorated mitochondria | mitochondrial shortening |  |  |  |
| QIAEAVRGIMDSLHMAARGGYGRKKRRQRRR [TAT-367-384Gly] | accelerated carboxyl terminal-directed proteolytic digestion of Mfn2 | without altering Mfn2 GTPase activity or influencing the abundance | rapidly reversed mitochondrial fragmentation | improved mitochondrial polarization | decorated mitochondria | mitochondrial hyper-elongation | corrected mitochondrial clumping | did not correct mitochondrial pathology | mitochondrial clumping induced |
